Reference: patent publication US5948786A, “Piperidinylpyrimidine derivatives” (Sumitomo Pharmaceuticals Company, Limited, priority 1996, dated 1999)

What follows are molecules tested on TNF α production from mouse macrophages (assay: Inhibitory activity of compound on TNF α Production from mouse macrophages (LPS-induced PEC's)). Conditions: Macrophage, LPS 10 μg/ml, 18 hours.
Assay type: cell-based
Description: BALB/c mice (female, 5-7 weeks old, Charles River Japan, Tokyo, Japan) were injected i.p. with 1 ml of 2.4% thioglycollate broth. After 4 days, the mice were sacrificed. Peritoneal exudated cells (PEC's) were collected from the peritoneal cavity by washing with minimum essential medium (MEM, Handai biseibutubyou kenkyukai, Osaka, Japan) containing 5 U/ml heparin, 1% fetal bovine serum (FBS, Filtron, Victoria, Australia) and antibiotics. The cells were washed two times with MEM, suspended with MEM containing 10% FBS (complete MEM, cMEM) and seeded into 96-well culture plates (Costar, Cambridge, Mass., USA) at 2×10^5 cells/well. The cells were incubated for 1 hour at 37° C. in a humidified 5% CO2 incubator and washed two times to remove non-adherent cells.
TNF α was induced by 10 μg/ml of LPS (E. coli O111B4, DIFCO, Detroit, Mich., USA) the cells were cultured for 18 hours at 37° C. A compound of the present invention was dissolved in DMSO and added to the culture simultaneously with LPS. The final DMSO concentration was below 0.1%. The TNF α concentration in supernatant and recombinant mouse TNF α standard (rm-TNF α, Genzyme, Mass., USA) were incubated overnight at 4° C. in a 96-well plate coated with anti-mouse TNF α monoclonal antibody (PharMingen, San Diego, Calif., USA) that previously had been blocked with 10% FBS. Each well of the plate first was incubated at room temperature with biotinylated anti-mouse TNF α polyclonal antibodies (PharMingen) for 45 minutes, then with peroxidase-conjugated streptavidin (Kirkegaard & Perry Laboratories Inc., Gaitherburg, Md., USA) for 30 minutes. After each incubation, the plate was washed 4 to 8 times with PBS containing 0.2% Tween 20. TMB (Kirkegaard & Perry Laboratories Inc.) was the peroxidase substrate used and, the absorbance of each well was quantified at 450 nm by a microplatereader (Molecular Devices Corp., CA, USA). TNF α levels in the supernatant were quantified with rm-TNF α as the standard.

Structure (SMILES)	inhibition at 30 µM
COc1ccc(Cc2cc(C3CCN(C(=O)CCNC(=O)OC(C)(C)C)CC3)nc(N)n2)cc1 [Example 176, 2-amino-4-[1-(3-t-butoxycarbonylaminopropanoyl)-4-piperidinyl]-6-(4-methoxyphenylmethyl)pyrimidine]	60%
COc1ccc(Cc2cc(C3CCN(C(=O)CCO)CC3)nc(N)n2)cc1 [Example 177]	46%
COc1ccc(Cc2cc(C3CCN(C(=O)c4ccccc4OC)CC3)nc(N)n2)cc1 [Example 178]	76%
COc1ccc(Cc2cc(C3CCN(C(=O)c4cccc(OC)c4)CC3)nc(N)n2)cc1 [Example 179]	82%
COc1ccc(Cc2cc(C3CCN(C(=O)c4ccc(OC)cc4)CC3)nc(N)n2)cc1 [Example 180]	70%
COc1ccc(Cc2cc(C3CCN(C(=O)c4ccccc4Cl)CC3)nc(N)n2)cc1 [Example 181]	26%
COc1ccc(Cc2cc(C3CCN(C(=O)c4cccc(Cl)c4)CC3)nc(N)n2)cc1 [Example 182]	46%
COc1ccc(Cc2cc(C3CCN(C(=O)c4ccc(Cl)cc4)CC3)nc(N)n2)cc1 [Example 183]	54%
COc1ccc(Cc2cc(C3CCN(C(=O)c4ccccc4[N+](=O)[O-])CC3)nc(N)n2)cc1 [Example 184]	73%
COc1ccc(Cc2cc(C3CCN(C(=O)c4cccc([N+](=O)[O-])c4)CC3)nc(N)n2)cc1 [Example 185]	69%
COc1ccc(Cc2cc(C3CCN(C(=O)c4ccc([N+](=O)[O-])cc4)CC3)nc(N)n2)cc1 [Example 186]	67%
COc1ccc(Cc2cc(C3CCN(C(=O)c4ccccn4)CC3)nc(N)n2)cc1 [Example 194]	9%
COc1ccc(Cc2cc(C3CCN(C(=O)c4cccnc4)CC3)nc(N)n2)cc1 [Example 195]	29%
COc1ccc(Cc2cc(C3CCN(C(=O)c4ccncc4)CC3)nc(N)n2)cc1 [Example 196]	57%
COc1ccc(Cc2cc(C3CCN(C(=O)c4cccc(OC)c4OC)CC3)nc(N)n2)cc1 [Example 197]	29%
COc1ccc(Cc2cc(C3CCN(C(=O)c4ccc(OC)cc4OC)CC3)nc(N)n2)cc1 [Example 198]	29%
COc1ccc(Cc2cc(C3CCN(C(=O)c4ccc(OC)c(OC)c4)CC3)nc(N)n2)cc1 [Example 201]	46%
COc1ccc(Cc2cc(C3CCN(C(=O)c4ccc(Cl)cc4Cl)CC3)nc(N)n2)cc1 [Example 204]	84%
COc1ccc(Cc2cc(C3CCN(C(=O)c4cc(Cl)ccc4Cl)CC3)nc(N)n2)cc1 [Example 205]	51%
COc1ccc(Cc2cc(C3CCN(C(=O)c4ccc(Cl)c(Cl)c4)CC3)nc(N)n2)cc1 [Example 207]	76%
COc1ccc(Cc2cc(C3CCN(C(=O)c4cccc5ccccc45)CC3)nc(N)n2)cc1 [Example 211]	80%

Structure (SMILES)	inhibition at 30 µM
COc1ccc(Cc2cc(C3CCN(C(=O)c4ccc(OC)c(OC)c4OC)CC3)nc(N)n2)cc1 [Example 213]	43%
COc1ccc(Cc2cc(C3CCN(C(=O)c4c(OC)ccc(OC)c4OC)CC3)nc(N)n2)cc1 [Example 214]	13%
COc1ccc(Cc2cc(C3CCN(C(=O)c4cc(OC)c(OC)c(OC)c4)CC3)nc(N)n2)cc1 [Example 217]	44%
COc1ccc(Cc2cc(C3CCN(C(=O)c4cc(Cl)cc(Cl)c4Cl)CC3)nc(N)n2)cc1 [Example 218]	55%
COc1ccc(Cc2cc(C3CCN(C(=O)c4c(Cl)ccc(Cl)c4Cl)CC3)nc(N)n2)cc1 [Example 219]	75%
COc1ccc(Cc2cc(C3CCN(C(=O)c4c(Cl)cc(Cl)cc4Cl)CC3)nc(N)n2)cc1 [Example 220]	75%
COc1ccc(Cc2cc(C3CCN(C(=O)Cc4ccccc4OC)CC3)nc(N)n2)cc1 [Example 222]	36%
COc1ccc(Cc2cc(C3CCN(C(=O)Cc4cccc(OC)c4)CC3)nc(N)n2)cc1 [Example 223]	82%
COc1ccc(CC(=O)N2CCC(c3cc(Cc4ccc(OC)cc4)nc(N)n3)CC2)cc1 [Example 224]	73%
COc1ccc(Cc2cc(C3CCN(C(=O)Cc4ccccc4Cl)CC3)nc(N)n2)cc1 [Example 225]	43%
COc1ccc(Cc2cc(C3CCN(C(=O)Cc4cccc(Cl)c4)CC3)nc(N)n2)cc1 [Example 226]	69%
COc1ccc(Cc2cc(C3CCN(C(=O)Cc4ccc(Cl)cc4)CC3)nc(N)n2)cc1 [Example 227]	63%
COc1ccc(Cc2cc(C3CCN(C(=O)Cc4ccc([N+](=O)[O-])cc4)CC3)nc(N)n2)cc1 [Example 233]	54%
COc1ccc(Cc2cc(C3CCN(C(=O)Cc4ccc(OC)c(OC)c4)CC3)nc(N)n2)cc1 [Example 237]	87%
COc1ccc(Cc2cc(C3CCN(C(=O)Cc4cc(OC)cc(OC)c4)CC3)nc(N)n2)cc1 [Example 238]	96%
COc1ccc(Cc2cc(C3CCN(C(=O)Cc4ccc(Cl)cc4Cl)CC3)nc(N)n2)cc1 [Example 239]	99%
COc1ccc(Cc2cc(C3CCN(C(=O)Cc4ccc(Cl)c(Cl)c4)CC3)nc(N)n2)cc1 [Example 241]	95%
COc1ccc(Cc2cc(C3CCN(C(=O)Cc4ccc([N+](=O)[O-])cc4[N+](=O)[O-])CC3)nc(N)n2)cc1 [Example 242]	31%
COc1ccc(Cc2cc(C3CCN(C(=O)Cc4ccc5c(c4)OCO5)CC3)nc(N)n2)cc1 [Example 243]	93%
COc1ccc(Cc2cc(C3CCN(C(=O)Cc4c(Cl)ccc(Cl)c4Cl)CC3)nc(N)n2)cc1 [Example 244]	98%
CCCCCCCC(=O)N1CCC(c2cc(Cc3ccc(Cl)cc3)nc(N)n2)CC1 [Example 247]	21%

Structure (SMILES)	inhibition at 30 µM
CCCCCCCCC(=O)N1CCC(c2cc(Cc3ccc(Cl)cc3)nc(N)n2)CC1 [Example 248]	-6%
Nc1nc(Cc2ccc(Cl)cc2)cc(C2CCN(C(=O)c3ccc4c(c3)OCO4)CC2)n1 [Example 250]	91%
COc1ccc(CC(=O)N2CCC(c3cc(Cc4ccc(Cl)cc4)nc(N)n3)CC2)cc1 [Example 251]	98%
Nc1nc(Cc2ccc(Cl)cc2)cc(C2CCN(C(=O)Cc3ccc(Cl)cc3)CC2)n1 [Example 252]	96%
CCCCCCCC(=O)N1CCC(c2cc(CCc3ccccc3)nc(N)n2)CC1 [Example 255]	47%
CCCCCCCCC(=O)N1CCC(c2cc(CCc3ccccc3)nc(N)n2)CC1 [Example 256]	75%
CCCCCCCCCC(=O)N1CCC(c2cc(CCc3ccccc3)nc(N)n2)CC1 [Example 257]	90%
COc1ccc(CC(=O)N2CCC(c3cc(CCc4ccccc4)nc(N)n3)CC2)cc1 [Example 261]	42%
Nc1nc(CCc2ccccc2)cc(C2CCN(C(=O)Cc3ccc(Cl)cc3)CC2)n1 [Example 262]	43%
Nc1nc(CCc2ccccc2)cc(C2CCN(C(=O)Cc3ccc([N+](=O)[O-])cc3)CC2)n1 [Example 263]	37%
Nc1nc(C2CCN(C(=O)OCc3ccccc3)CC2)c2ccccc2n1 [Example 269]	77%
Nc1nc(C2CCN(S(=O)(=O)Cc3ccccc3)CC2)c2ccccc2n1 [Example 272]	5%
COc1ccc(Cc2cc(C3CCN(C(=O)OCc4ccccc4)CC3)nc(N)n2)cc1 [Example 274]	49%
COc1ccc(Cc2cc(C3CCN(S(=O)(=O)Cc4ccccc4)CC3)nc(N)n2)cc1 [Example 277]	32%
Nc1nc(C2CCN(C(=O)NCc3ccccc3)CC2)c2ccccc2n1 [Example 280, 2-amino-4-(1-benzyl-carbamoyl-4-piperidinyl)quinazoline]	34%
COc1ccc(Cc2cc(C3CCN(C(=O)NCc4ccccc4)CC3)nc(N)n2)cc1 [Example 283, 2-amino-4-(1-benzylcarbamoyl-4-piperidinyl)-6-(4-methoxyphenylmethyl)pyrimidine]	81%
NCCCCCCC(=O)N1CCC(c2nc(N)nc3ccccc23)CC1 [Example 284, 2-amino-4-[1-(7-aminoheptanoyl)-4-piperidinyl]quinazoline]	3%
NCCCCCCCC(=O)N1CCC(c2nc(N)nc3ccccc23)CC1 [Example 285, 2-amino-4-[1-(8-aminooctanoyl)-4-piperidinyl]quinazoline]	27%
NCCCCCCCCCCC(=O)N1CCC(c2nc(N)nc3ccccc23)CC1 [Example 286, 2-amino-4-[1-(11-aminoundecanoyl)-4-piperidinyl]quinazoline]	67%
